Assays:
Test in all cases: TGFα-shedding assay-based GPCR screening with chimeric Gα subunit proteins
Assay type in all cases: cell-based
348 GPCRs [1] = molecular target: 348 GPCRs (Homo sapiens, UniProt P43220); settings: GLP1R (glucagon-like peptide 1 receptor); 10µM, Favipiravir 100μM; read-out: % GPCR activation compared to TPA
348 GPCRs [2] = molecular target: T1, 348 GPCRs (Homo sapiens, UniProt P46094); settings: GPCR XCR1 (chemokine (C motif) receptor 1/GPR5), read-out: % GPCR activation compared to TPA
T1 construct: expressed in transfected cells; host or cells: HEK293A
T1 sequence (P46094 1-333): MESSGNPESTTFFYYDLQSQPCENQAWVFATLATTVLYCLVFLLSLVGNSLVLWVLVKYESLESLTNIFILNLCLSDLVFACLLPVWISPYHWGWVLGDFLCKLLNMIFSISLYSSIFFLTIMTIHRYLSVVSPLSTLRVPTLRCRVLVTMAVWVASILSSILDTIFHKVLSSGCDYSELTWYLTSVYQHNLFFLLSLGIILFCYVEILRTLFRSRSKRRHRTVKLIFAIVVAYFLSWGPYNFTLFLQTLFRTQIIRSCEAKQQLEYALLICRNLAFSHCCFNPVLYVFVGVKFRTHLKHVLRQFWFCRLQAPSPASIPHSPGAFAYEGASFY

348 GPCRs [3] = molecular target: T2, 348 GPCRs (Homo sapiens, UniProt Q9Y2T5); settings: GPCR GPR52 (G protein-coupled receptor 52), read-out: % GPCR activation compared to TPA
T2 construct: expressed in transfected cells; host or cells: HEK293A
T2 sequence (Q9Y2T5 whole entry): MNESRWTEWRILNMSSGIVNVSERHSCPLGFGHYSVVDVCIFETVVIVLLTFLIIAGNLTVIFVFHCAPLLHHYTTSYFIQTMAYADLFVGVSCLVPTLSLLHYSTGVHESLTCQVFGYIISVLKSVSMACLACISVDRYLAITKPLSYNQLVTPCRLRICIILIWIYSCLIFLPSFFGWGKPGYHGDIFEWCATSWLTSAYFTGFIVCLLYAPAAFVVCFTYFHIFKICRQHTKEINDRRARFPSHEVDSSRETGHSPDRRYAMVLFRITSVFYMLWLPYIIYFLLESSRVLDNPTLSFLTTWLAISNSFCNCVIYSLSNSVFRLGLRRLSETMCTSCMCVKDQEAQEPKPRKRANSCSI

348 GPCRs [4] = molecular target: T3, 348 GPCRs (Homo sapiens, UniProt P25106); settings: GPCR CXCR7 (chemokine (C-X-C motif) receptor 7), read-out: % GPCR activation compared to TPA
T3 construct: expressed in transfected cells; host or cells: HEK293A
T3 sequence (P25106 whole entry): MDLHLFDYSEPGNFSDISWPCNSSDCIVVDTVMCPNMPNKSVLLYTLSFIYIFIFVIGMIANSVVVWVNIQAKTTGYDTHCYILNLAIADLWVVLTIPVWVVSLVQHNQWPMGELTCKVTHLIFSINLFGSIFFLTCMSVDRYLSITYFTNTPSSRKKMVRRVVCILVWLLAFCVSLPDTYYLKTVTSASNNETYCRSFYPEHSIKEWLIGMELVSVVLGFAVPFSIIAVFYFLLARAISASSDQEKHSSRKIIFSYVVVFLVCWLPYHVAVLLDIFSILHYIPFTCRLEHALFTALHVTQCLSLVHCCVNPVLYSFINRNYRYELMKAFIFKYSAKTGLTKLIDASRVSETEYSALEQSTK

348 GPCRs [5] = molecular target: T4, 348 GPCRs (Homo sapiens, UniProt Q9Y5N1); settings: H3 (histamine receptor H3); 10µM, Favipiravir 100μM; read-out: % GPCR activation compared to TPA
T4 construct: expressed in transfected cells; host or cells: HEK293A
T4 sequence (Q9Y5N1 whole entry): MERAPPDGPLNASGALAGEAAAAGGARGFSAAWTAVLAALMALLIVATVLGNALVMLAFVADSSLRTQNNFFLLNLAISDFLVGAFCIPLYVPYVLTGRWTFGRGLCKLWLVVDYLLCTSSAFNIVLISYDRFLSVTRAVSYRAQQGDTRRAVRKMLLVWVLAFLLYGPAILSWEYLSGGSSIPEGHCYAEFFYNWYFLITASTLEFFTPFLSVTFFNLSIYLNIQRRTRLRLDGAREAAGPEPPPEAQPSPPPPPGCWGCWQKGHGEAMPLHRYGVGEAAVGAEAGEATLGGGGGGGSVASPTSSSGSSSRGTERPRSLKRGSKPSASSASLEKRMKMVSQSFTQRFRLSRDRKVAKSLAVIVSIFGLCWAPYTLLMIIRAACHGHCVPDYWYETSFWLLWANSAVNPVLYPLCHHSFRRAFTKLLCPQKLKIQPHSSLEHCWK

348 GPCRs [6] = molecular target: T5, 348 GPCRs (Homo sapiens, UniProt P51582); settings: GPCR P2Y4 (pyrimidinergic receptor P2Y, G-protein coupled, 4), read-out: % GPCR activation compared to TPA
T5 construct: expressed in transfected cells; host or cells: HEK293A
T5 sequence (P51582 whole entry): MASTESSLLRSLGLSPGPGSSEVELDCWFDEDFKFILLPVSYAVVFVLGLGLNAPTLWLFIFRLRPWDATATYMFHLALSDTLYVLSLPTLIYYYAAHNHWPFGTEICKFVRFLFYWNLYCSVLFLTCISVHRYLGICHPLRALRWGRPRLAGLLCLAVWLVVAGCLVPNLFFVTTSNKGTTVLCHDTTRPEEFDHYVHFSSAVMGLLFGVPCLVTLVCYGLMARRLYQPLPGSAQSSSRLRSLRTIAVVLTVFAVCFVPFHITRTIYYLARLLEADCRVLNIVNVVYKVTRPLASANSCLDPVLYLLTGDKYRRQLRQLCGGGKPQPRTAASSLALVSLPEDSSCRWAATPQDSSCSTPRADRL

348 GPCRs [7] = molecular target: T6, 348 GPCRs (Homo sapiens, UniProt P11229); settings: GPCR M1 (Muscarinic acetylcholine receptor M1), read-out: % GPCR activation compared to TPA
T6 sequence (P11229 1-460): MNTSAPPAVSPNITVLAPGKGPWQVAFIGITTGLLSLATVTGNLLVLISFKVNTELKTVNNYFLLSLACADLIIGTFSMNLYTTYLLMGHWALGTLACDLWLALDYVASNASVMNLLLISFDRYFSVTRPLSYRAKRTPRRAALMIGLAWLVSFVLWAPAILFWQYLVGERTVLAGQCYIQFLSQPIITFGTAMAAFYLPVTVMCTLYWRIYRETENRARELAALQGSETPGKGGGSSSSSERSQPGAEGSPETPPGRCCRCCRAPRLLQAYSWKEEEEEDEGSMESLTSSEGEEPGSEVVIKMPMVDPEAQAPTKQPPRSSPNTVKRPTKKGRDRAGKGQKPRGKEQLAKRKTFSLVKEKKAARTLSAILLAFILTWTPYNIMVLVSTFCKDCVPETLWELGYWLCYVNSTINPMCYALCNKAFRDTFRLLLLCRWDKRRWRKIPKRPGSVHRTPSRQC

348 GPCRs [8] = molecular target: T7, 348 GPCRs (Homo sapiens, UniProt Q6U736); settings: OPN5 (opsin 5); 10µM, Favipiravir 100μM; read-out: % GPCR activation compared to TPA
T7 construct: expressed in transfected cells; host or cells: HEK293A
T7 sequence (Q6U736 whole entry): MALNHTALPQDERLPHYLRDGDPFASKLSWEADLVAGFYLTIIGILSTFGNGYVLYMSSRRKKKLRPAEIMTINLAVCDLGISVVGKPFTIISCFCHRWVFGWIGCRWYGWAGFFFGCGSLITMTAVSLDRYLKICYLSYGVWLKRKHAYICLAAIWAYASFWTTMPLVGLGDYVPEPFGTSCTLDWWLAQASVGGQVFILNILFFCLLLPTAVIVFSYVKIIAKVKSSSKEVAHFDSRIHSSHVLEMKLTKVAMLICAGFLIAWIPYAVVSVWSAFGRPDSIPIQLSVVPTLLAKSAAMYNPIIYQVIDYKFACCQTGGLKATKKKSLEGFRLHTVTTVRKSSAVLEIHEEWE

348 GPCRs [9] = molecular target: T8, 348 GPCRs (Homo sapiens, UniProt Q9H3N8); settings: H4 (histamine receptor H4); 10µM, Favipiravir 100μM; read-out: % GPCR activation compared to TPA
T8 construct: expressed in transfected cells; host or cells: HEK293A

348 GPCRs [10] = molecular target: T9, 348 GPCRs (Homo sapiens, UniProt Q9H1Y3); settings: OPN3 (opsin 3); 10µM, Favipiravir 100μM; read-out: % GPCR activation compared to TPA
T9 construct: expressed in transfected cells; host or cells: HEK293A
T9 sequence (Q9H1Y3 whole entry): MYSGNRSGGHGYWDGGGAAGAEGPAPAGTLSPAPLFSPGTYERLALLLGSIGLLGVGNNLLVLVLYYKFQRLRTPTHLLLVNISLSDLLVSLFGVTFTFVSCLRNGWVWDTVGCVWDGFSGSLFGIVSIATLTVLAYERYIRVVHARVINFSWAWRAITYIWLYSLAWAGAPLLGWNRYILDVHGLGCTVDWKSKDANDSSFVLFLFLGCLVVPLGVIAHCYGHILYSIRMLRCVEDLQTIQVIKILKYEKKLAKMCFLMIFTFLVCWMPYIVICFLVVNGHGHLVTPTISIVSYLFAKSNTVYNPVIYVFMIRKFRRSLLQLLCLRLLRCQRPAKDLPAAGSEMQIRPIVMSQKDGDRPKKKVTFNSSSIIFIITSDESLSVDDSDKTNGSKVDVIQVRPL

348 GPCRs [11] = molecular target: T10, 348 GPCRs (Homo sapiens, UniProt Q8TDT2); settings: GPR152 (G Protein-Coupled Receptor 152); 10µM, Favipiravir 100μM; read-out: % GPCR activation compared to TPA
T10 construct: expressed in transfected cells; host or cells: HEK293A
T10 sequence (Q8TDT2 whole entry): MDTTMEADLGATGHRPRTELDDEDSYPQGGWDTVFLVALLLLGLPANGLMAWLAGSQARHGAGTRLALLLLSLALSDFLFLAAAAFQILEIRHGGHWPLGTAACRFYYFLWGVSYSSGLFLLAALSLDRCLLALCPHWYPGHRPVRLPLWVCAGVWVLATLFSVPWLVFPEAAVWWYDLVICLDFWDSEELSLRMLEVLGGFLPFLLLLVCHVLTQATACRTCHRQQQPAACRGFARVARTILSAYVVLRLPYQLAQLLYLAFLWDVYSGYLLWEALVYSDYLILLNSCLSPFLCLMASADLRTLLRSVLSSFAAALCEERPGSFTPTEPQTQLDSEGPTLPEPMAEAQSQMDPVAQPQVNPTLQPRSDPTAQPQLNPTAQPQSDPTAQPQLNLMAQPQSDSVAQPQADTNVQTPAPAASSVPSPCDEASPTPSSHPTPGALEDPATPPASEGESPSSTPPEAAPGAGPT

348 GPCRs [12] = molecular target: T11, 348 GPCRs (Homo sapiens, UniProt Q9Y2T6); settings: GPCR GPR55 (G Protein-Coupled Receptor 55), read-out: % GPCR activation compared to TPA
T11 construct: expressed in transfected cells; host or cells: HEK293A
T11 sequence (Q9Y2T6 whole entry): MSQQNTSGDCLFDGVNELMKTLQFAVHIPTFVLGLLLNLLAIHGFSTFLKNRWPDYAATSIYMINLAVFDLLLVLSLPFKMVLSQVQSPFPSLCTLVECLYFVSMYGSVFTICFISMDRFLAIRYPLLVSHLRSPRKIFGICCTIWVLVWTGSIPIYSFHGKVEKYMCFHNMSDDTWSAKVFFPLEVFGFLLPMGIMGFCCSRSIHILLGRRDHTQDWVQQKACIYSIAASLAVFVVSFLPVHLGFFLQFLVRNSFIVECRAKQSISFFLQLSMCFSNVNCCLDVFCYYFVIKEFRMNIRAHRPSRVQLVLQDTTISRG

348 GPCRs [13] = molecular target: T12, 348 GPCRs (Homo sapiens, UniProt P16473); settings: TSHR (thyroid stimulating hormone receptor); 10µM, Favipiravir 100μM; read-out: % GPCR activation compared to TPA
T12 construct: expressed in transfected cells; host or cells: HEK293A
T12 sequence (P16473 21-764): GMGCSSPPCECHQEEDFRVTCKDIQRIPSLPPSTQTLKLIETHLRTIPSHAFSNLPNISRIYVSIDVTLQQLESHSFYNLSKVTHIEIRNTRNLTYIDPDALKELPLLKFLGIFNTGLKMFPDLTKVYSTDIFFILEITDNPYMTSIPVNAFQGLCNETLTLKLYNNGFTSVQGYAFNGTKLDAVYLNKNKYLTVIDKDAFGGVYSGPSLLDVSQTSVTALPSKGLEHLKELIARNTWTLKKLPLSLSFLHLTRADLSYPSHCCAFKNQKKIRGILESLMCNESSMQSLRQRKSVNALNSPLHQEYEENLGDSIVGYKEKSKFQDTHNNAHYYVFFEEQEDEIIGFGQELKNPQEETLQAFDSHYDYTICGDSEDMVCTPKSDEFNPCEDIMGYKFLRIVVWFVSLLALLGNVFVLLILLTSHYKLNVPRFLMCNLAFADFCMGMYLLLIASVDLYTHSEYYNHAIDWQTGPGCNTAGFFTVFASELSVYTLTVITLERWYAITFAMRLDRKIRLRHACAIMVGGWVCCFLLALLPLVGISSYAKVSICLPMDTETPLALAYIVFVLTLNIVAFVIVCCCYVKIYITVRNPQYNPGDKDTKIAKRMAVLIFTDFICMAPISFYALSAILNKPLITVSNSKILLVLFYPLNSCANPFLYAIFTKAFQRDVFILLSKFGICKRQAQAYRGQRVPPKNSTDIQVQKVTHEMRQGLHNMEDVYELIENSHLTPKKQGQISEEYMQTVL

348 GPCRs [14] = molecular target: T13, 348 GPCRs (Homo sapiens, UniProt P41231); settings: GPCR P2Y2 (purinergic receptor P2Y, G-protein coupled, 2), read-out: % GPCR activation compared to TPA
T13 construct: expressed in transfected cells; host or cells: HEK293A
T13 sequence (P41231 whole entry): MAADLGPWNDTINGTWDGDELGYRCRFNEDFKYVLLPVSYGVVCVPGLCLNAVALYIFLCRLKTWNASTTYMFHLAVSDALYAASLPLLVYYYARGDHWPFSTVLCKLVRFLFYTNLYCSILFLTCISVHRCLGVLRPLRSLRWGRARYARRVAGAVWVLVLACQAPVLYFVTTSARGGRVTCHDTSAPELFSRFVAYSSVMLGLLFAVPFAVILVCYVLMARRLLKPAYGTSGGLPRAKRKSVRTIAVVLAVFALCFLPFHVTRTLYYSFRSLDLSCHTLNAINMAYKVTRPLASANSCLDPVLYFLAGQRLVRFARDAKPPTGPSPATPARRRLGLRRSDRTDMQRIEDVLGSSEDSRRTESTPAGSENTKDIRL

348 GPCRs [15] = molecular target: T14, 348 GPCRs (Homo sapiens, UniProt P41586); settings: ADCYAP1 (ADCYAP receptor type I); 10µM, Favipiravir 100μM; read-out: % GPCR activation compared to TPA
T14 construct: expressed in transfected cells; host or cells: HEK293A
T14 sequence (P41586 21-468): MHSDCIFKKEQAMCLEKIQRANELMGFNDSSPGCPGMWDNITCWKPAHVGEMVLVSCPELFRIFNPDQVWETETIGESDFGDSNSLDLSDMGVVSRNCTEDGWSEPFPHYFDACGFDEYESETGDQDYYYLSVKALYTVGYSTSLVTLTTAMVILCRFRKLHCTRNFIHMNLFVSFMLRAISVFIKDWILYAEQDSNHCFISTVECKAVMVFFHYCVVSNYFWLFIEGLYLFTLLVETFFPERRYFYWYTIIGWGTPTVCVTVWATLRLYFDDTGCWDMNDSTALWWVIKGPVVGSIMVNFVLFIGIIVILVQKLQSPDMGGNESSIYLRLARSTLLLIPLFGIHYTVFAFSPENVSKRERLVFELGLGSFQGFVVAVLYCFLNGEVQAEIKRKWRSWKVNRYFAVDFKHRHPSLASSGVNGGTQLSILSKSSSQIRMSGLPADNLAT

Sequence of 348 GPCRs (Homo sapiens, UniProt P43220) (P43220 24-463): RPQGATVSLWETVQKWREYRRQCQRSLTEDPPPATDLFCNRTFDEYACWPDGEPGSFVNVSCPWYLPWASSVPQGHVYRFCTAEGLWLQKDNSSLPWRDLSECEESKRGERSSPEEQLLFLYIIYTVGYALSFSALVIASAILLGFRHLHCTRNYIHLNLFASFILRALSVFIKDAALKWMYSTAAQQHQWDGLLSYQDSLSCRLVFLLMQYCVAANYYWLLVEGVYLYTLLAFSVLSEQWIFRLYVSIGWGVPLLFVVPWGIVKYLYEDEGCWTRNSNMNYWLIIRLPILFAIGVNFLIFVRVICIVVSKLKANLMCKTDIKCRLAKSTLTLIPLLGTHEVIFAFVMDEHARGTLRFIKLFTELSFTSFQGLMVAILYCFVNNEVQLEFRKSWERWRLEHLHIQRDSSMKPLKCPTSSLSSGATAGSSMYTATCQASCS

activation at 10 µM (348 GPCRs [1]) [%] | activation at 100 µM (348 GPCRs [5]) [%] | activation at 100 µM (348 GPCRs [8]) [%] | activation at 100 µM (348 GPCRs [9]) [%] | activation at 100 µM (348 GPCRs [10]) [%] | activation at 10 µM (348 GPCRs [11]) [%] | activation at 10 µM (348 GPCRs [13]) [%] | activation at 100 µM (348 GPCRs [15]) [%] | Compound | further results
-1.52 | 0.59 | -1.77 | 5.54 | -0.281 | -0.232 | -1.39 | 3.21 | N#C[C@@]1(c2ccc3c(N)ncnn23)O[C@H](CO)[C@@H](O)[C@H]1O [GS441524] | activation at 10 µM (348 GPCRs [2]; 10µM): -1.92%; activation at 10 µM (348 GPCRs [3]; 10µM): -1.15%; activation at 10 µM (348 GPCRs [4]; 10µM): 1.43%; activation at 10 µM (348 GPCRs [6]; 10µM): -5.06%; activation at 10 µM (348 GPCRs [7]; 10µM): 0.618%; activation at 10 µM (348 GPCRs [12]; 10µM): -0.0977%; activation at 10 µM (348 GPCRs [14]; 10µM): -17.2%
-2.54 | 0.315 | -1.8 | 1.77 | -0.343 | -0.401 | -1.11 | -0.29 | NC(=O)c1nc(F)cnc1O [favipiravir, 6-fluoro-3-hydroxy-2-pyrazinecarboxamide] | activation at 100 µM (348 GPCRs [2]; 100μM): 0.846%; activation at 100 µM (348 GPCRs [3]; 100μM): -2.31%; activation at 100 µM (348 GPCRs [4]; 100μM): -1.9%; activation at 100 µM (348 GPCRs [6]; 100μM): -6.06%; activation at 100 µM (348 GPCRs [7]; 100μM): 0.788%; activation at 100 µM (348 GPCRs [12]; 100μM): -0.0195%; activation at 100 µM (348 GPCRs [14]; 100μM): -23%
